Assay [1] addresses GDP-bound KRAS protein (aa 1-169), containing both G12C and C118A amino acid substitutions (Homo sapiens, UniProt P01116, C118A/G12C). Description: Coupled nucleotide exchange assay (SOS-mediated, AlphaScreen). The assay is classed as biochemical. Conditions: 5 min compound pre-incubation. For orientation: Alpha assays give light when donor and acceptor beads are brought close together.

For assay [2], the system named is Phosphorylation of ERK1/2 in MIA PaCa-2 cells. As to the kind of experiment: Phospho-ERK1/2 MSD assay in MIA PaCa-2 cells. The class given is cell-based. Conditions: Homo sapiens, MIA PaCa-2, 2 h, read-out: p-ERK IC50 (2 h; MIA PaCa-2), 2 h compound treatment. The essentials: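 MIA PaCa-2 or A549 cells were treated with a compound dose-response titration for 2 or 4 h at 37 °C, then stimulated with 10 ng/mL EGF for 10 min. Phospho-ERK1/2 in RIPA lysates was measured by MSD whole-cell lysate immunoassay, and IC50 came from a 4-parameter logistic fit.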

Broadly, the IC50 is the point on the concentration scale where inhibition reaches its midpoint.

Chain of GDP-bound KRAS protein (aa 1-169), containing both G12C and C118A amino acid substitutions (P01116 1-169 isoform P01116-2 G12C/C118A): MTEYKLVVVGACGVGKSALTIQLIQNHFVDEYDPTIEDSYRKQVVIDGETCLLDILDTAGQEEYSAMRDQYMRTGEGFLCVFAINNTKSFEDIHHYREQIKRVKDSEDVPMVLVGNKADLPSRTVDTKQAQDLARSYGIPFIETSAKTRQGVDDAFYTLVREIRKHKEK

In the case of `C=CC(=O)N1CCN(c2nc(=O)n(-c3ccccc3C(C)C)c3nc(-c4cc(OC)ccc4F)c(Cl)cc23)[C@@H](C)C1` [Example 56-9, 6-chloro-7-(2-fluoro-5-methoxyphenyl)-4-((2S)-2-methyl-4-(2-propenoyl)-1-piperazinyl)-1-(2-(2-propanyl)phenyl)pyrido[2,3-d]pyrimidin-2(1H)-one], the “Coupled exchange IC50 (5 min)” value in assay [1] is 0.269 | nda μM. Also, in assay [2], the IC50 was 160 nM.

As to `C=CC(=O)N1CCN(c2nc(=O)n(-c3ccccc3C(C)C)c3nc(-c4ccccc4OC(F)F)c(Cl)cc23)[C@@H](C)C1` [Example 56-10, 6-chloro-7-(2-(difluoromethoxy)phenyl)-4-((2S)-2-methyl-4-(2-propenoyl)-1-piperazinyl)-1-(2-(2-propanyl)phenyl)pyrido[2,3-d]pyrimidin-2(1H)-one], in assay [1], the “Coupled exchange IC50 (5 min)” value is given as 0.332 | nda μM. Further, in assay [2], the half-inhibitory concentration (IC50) amounted to 260 nM.

As to `C=CC(=O)N1CCN(c2nc(=O)n(-c3c(C)ccnc3CC)c3nc(-c4c(O)cccc4F)c(F)cc23)[C@@H](C)C1` [Example 57-1, 1-(2-Ethyl-4-methyl-3-pyridinyl)-6-fluoro-7-(2-fluoro-6-hydroxyphenyl)-4-((2S)-2-methyl-4-(2-propenoyl)-1-piperazinyl)pyrido[2,3-d]pyrimidin-2(1H)-one], the “Coupled exchange IC50 (5 min)” value in assay [1] was 0.835 | nda μM. The IC50 in assay [2] was 171 nM.

For the compound `C=CC(=O)N1CCN(c2nc(=O)n(-c3nccnc3C(C)C)c3nc(-c4ccccc4F)c(F)cc23)[C@@H](C)C1` [Example 57-2, 6-fluoro-7-(2-fluorophenyl)-4-((2S)-2-methyl-4-(2-propenoyl)-1-piperazinyl)-1-(3-(2-propanyl)-2-pyrazinyl)pyrido[2,3-d]pyrimidin-2(1H)-one], the “Coupled exchange IC50 (5 min)” value in assay [1] is given as 0.74 | nda μM. In assay [2], the IC50 is 300 nM.

On to `C=CC(=O)N1CCN(c2nc(=O)n(-c3nccnc3C(C)C)c3nc(-c4c(O)cccc4F)c(F)cc23)[C@@H](C)C1` [Example 57-3, 6-fluoro-7-(2-fluoro-6-hydroxyphenyl)-4-((2S)-2-methyl-4-(2-propenoyl)-piperazinyl)-1-(3-(2-propanyl)-2-pyrazinyl)pyrido[2,3-d]pyrimidin-2(1H)-one], for which the “Coupled exchange IC50 (5 min)” value in assay [1] is 0.664 | nda μM. Besides, the concentration for half-maximal inhibition (IC50) in assay [2] is 241 nM.

For the compound `C=CC(=O)N1CCN(c2nc(=O)n(-c3c(C(C)C)ncnc3C(C)C)c3nc(-c4c(O)cccc4F)c(F)cc23)[C@@H](C)C1` [Example 57-4, 1-(4,6-di(2-propanyl)-5-pyrimidinyl)-6-fluoro-7-(2-fluoro-6-hydroxyphenyl)-4-((2S)-2-methyl-4-(2-propenoyl)-1-piperazinyl)pyrido[2,3-d]pyrimidin-2(1H)-one], the “Coupled exchange IC50 (5 min)” value in assay [1] was 0.1 | nda μM. Moreover, the IC50 in assay [2] came to 61 nM.

On to `C=CC(=O)N1CCN(c2nc(=O)n(-c3c(C(C)C)ncnc3C(C)C)c3nc(-c4ccccc4F)c(F)cc23)[C@@H](C)C1` [Example 57-5, 1-(4,6-di(2-propanyl)-5-pyrimidinyl)-6-fluoro-7-(2-fluorophenyl)-4-((2S)-2-methyl-4-(2-propenoyl)-1-piperazinyl)pyrido[2,3-d]pyrimidin-2(1H)-one], for which, in assay [1], the “Coupled exchange IC50 (5 min)” value is 0.221 | nda μM. In addition, the half-inhibitory concentration (IC50) in assay [2] amounted to 107 nM.

On to `C=CC(=O)N1CCN(c2nc(=O)n(-c3ncccc3C(C)C)c3nc(-c4ccccc4F)c(F)cc23)[C@@H](C)C1` [Example 57-9, 6-fluoro-7-(2-fluorophenyl)-4-((2S)-2-methyl-4-(2-propenoyl)-1-piperazinyl)-1-(3-(2-propanyl)-2-pyridinyl)pyrido[2.3-d]pyrimidin-2(1H)-one], for which the “Coupled exchange IC50 (5 min)” value in assay [1] is 0.752 | nda μM. For the same compound, the IC50 in assay [2] came out at 239 nM.

`C=CC(=O)N1CCN(c2nc(=O)n(-c3ncccc3C(C)C)c3nc(-c4c(O)cccc4F)c(F)cc23)[C@@H](C)C1` [Example 57-10, 6-fluoro-7-(2-fluoro-6-hydroxyphenyl)-4-((2S)-2-methyl-4-(2-propenoyl)-1-piperazinyl)-1-(3-(2-propanyl)-2-pyridinyl)pyrido[2,3-d]pyrimidin-2(1H)-one]: the “Coupled exchange IC50 (5 min)” value in assay [1] is 0.452 | nda μM. Moreover, in assay [2], the 50% inhibitory concentration (IC50) came out at 105 nM.

Consider `C=CC(=O)N1CCN(c2nc(=O)n(-c3scnc3C(C)C)c3nc(-c4c(O)cccc4F)c(F)cc23)[C@@H](C)C1` [Example 57-11, 6-fluoro-7-(2-fluoro-6-hydroxyphenyl)-4-((2S)-2-methyl-4-(2-propenoyl)-1-piperazinyl)-1-(4-(2-propanyl)-1,3-thiazol-5-yl)pyrido[2,3-d]pyrimidin-2(1H)-one], for which the “Coupled exchange IC50 (5 min)” value in assay [1] is 0.24 | nda μM. Besides, the IC50 in assay [2] came to 265 nM.

In the case of `C=CC(=O)N1CCN(c2nc(=O)n(-c3scnc3C(C)C)c3nc(-c4ccccc4F)c(F)cc23)[C@@H](C)C1` [Example 57-12, 6-fluoro-7-(2-fluorophenyl)-4-((2S)-2-methyl-4-(2-propenoyl)-1-piperazinyl)-1-(4-(2-propanyl)-1,3-thiazol-5-yl)pyrido[2,3-d]pyrimidin-2(1H)-one], the “Coupled exchange IC50 (5 min)” value in assay [1] is reported as 0.472 | nda μM. In assay [2], the half-inhibitory concentration (IC50) came to 539 nM.

Regarding `C=CC(=O)N1CCN(c2nc(=O)n(-c3c(C)cccc3C(C)(C)C)c3nc(-c4c(O)cccc4F)c(F)cc23)[C@@H](C)C1` [Example 57-17, 6-fluoro-7-(2-fluoro-6-hydroxyphenyl)-1-(2-methyl-6-(2-methyl-2-propanyl)phenyl)-4-((2S)-2-methyl-4-(2-propenoyl)-1-piperazinyl)pyrido[2,3-d]pyrimidin-2(1H)-one], in assay [1], the “Coupled exchange IC50 (5 min)” value is 0.574 | nda μM. The 50% inhibitory concentration (IC50) in assay [2] came out at 1440 nM.

Take `C=CC(=O)N1CCN(c2nc(=O)n(-c3ccccc3C(C)(C)C)c3nc(-c4c(O)cccc4F)c(F)cc23)[C@@H](C)C1` [Example 58-1, 6-Fluoro-7-(2-fluoro-6-hydroxyphenyl)-1-(2-(2-methyl-2-propanyl)phenyl)-4-((2S)-2-methyl-4-(2-propenoyl)-1-piperazinyl)pyrido[2,3-d]pyrimidin-2(1H)-one]: the “Coupled exchange IC50 (5 min)” value in assay [1] is 0.661 | nda μM. The IC50 in assay [2] was 696 nM.

For the compound `C=CC(=O)N1CCN(c2nc(=O)n(-c3c(C(F)(F)F)ccnc3C(C)C)c3nc(-c4c(O)cccc4F)c(F)cc23)[C@@H](C)C1` [Example 58-3, 6-fluoro-7-(2-fluoro-6-hydroxyphenyl)-4-((2S)-2-methyl-4-(2-propenoyl)-1-piperazinyl)-1-(2-(2-propanyl)-4-(trifluoromethyl)-3-pyridinyl)pyrido[2,3-d]pyrimidin-2(1H)-one], the “Coupled exchange IC50 (5 min)” value in assay [1] is reported as 0.261 | nda μM. Besides, the IC50 in assay [2] turned out to be 181 nM.

Regarding `C=CC(=O)N1CCN(c2nc(=O)n(-c3c(C)ccnc3C(C)C)c3nc(-c4ccccc4F)c(F)cc23)[C@@H](C)C1` [Example 58-4, 6-fluoro-7-(2-fluorophenyl)-1-(4-methyl-2-(2-propanyl)-3-pyridinyl)-4-((2S)-2-methyl-4-(2-propenoyl)-1-piperazinyl)pyrido[2,3-d]pyrimidin-2(1H)-one], in assay [1], the “Coupled exchange IC50 (5 min)” value was 0.395 | nda μM. Also, the IC50 in assay [2] was found to be 183 nM.

Take `C=CC(=O)N1CCN(c2nc(=O)n(-c3c(C)ccnc3C(C)C)c3nc(-c4cc(O)ccc4F)c(F)cc23)[C@@H](C)C1` [Example 58-5, 6-fluoro-7-(2-fluoro-5-hydroxyphenyl)-1-(4-methyl-2-(2-propanyl)-3-pyridinyl)-4-((2S)-2-methyl-4-(2-propenoyl)-1-piperazinyl)pyrido[2,3-d]pyrimidin-2(1H)-one]: the “Coupled exchange IC50 (5 min)” value in assay [1] is given as 0.484 | nda μM. For the same compound, the IC50 in assay [2] is 1990 nM.

For the compound `C=CC(=O)N1CCN(c2nc(=O)n(-c3c(C)ccnc3C(C)C)c3nc(-c4cc(N)ccc4F)c(F)cc23)[C@@H](C)C1` [Example 58-6], in assay [1], the “Coupled exchange IC50 (5 min)” value was 0.623 | nda μM. In addition, in assay [2], the IC50 was 842 nM.

For the compound `C=CC(=O)N1CCN(c2nc(=O)n(-c3c(C)ccnc3C(C)C)c3nc(-c4cc(O)cc(Cl)c4Cl)c(F)cc23)[C@@H](C)C1` [Example 58-7, 7-(2,3-dichloro-5-hydroxyphenyl)-6-fluoro-1-(4-methyl-2-(2-propanyl)-3-pyridinyl)-4-((2S)-2-methyl-4-(2-propenoyl)-1-piperazinyl)pyrido[2,3-d]pyrimidin-2(1H)-one], in assay [1], the “Coupled exchange IC50 (5 min)” value is recorded as 0.072 | nda μM. Also, the half-maximal inhibitory concentration (IC50) in assay [2] was 1990 nM.

Take `C=CC(=O)N1CCN(c2nc(=O)n(-c3c(C)ccnc3C(C)C)c3nc(-c4cc(N)ccc4Cl)c(F)cc23)[C@@H](C)C1` [Example 58-8, 7-(5-amino-2-chlorophenyl)-6-fluoro-1-(4-methyl-2-(2-propanyl)-3-pyridinyl)-4-((2S)-2-methyl-4-(2-propenoyl)-1-piperazinyl)pyrido[2,3-d]pyrimidin-2(1H)-one]: the “Coupled exchange IC50 (5 min)” value in assay [1] is reported as 0.393 | nda μM. For the same compound, the IC50 in assay [2] worked out at 437 nM.

`C=CC(=O)N1CCN(c2nc(=O)n(-c3c(C)ccnc3C(C)C)c3nc(-c4c(O)cccc4Cl)c(F)cc23)[C@@H](C)C1` [Example 58-9, 7-(2-chloro-6-hydroxyphenyl)-6-fluoro-1-(4-methyl-2-(2-propanyl)-3-pyridinyl)-4-((2S)-2-methyl-4-(2-propenoyl)-1-piperazinyl)pyrido[2,3-d]pyrimidin-2(1H)-one]: the “Coupled exchange IC50 (5 min)” value in assay [1] is 0.095 | nda μM. Moreover, the IC50 in assay [2] was 220 nM.

Take `C=CC(=O)N1CCN(c2nc(=O)n(-c3c(C)ccnc3C(C)C)c3nc(-c4ccc(F)cc4F)c(F)cc23)[C@@H](C)C1` [Example 58-10, 7-(2,4-difluorophenyl)-6-fluoro-1-(4-methyl-2-(2-propanyl)-3-pyridinyl)-4-((2S)-2-methyl-4-(2-propenoyl)-1-piperazinyl)pyrido[2,3-d]pyrimidin-2(1H)-one]: in assay [1], the “Coupled exchange IC50 (5 min)” value was 0.445 | nda μM. The IC50 in assay [2] was 433 nM.

These data come from patent publication US11090304B2 (Amgen Inc., priority 2018, dated 2021).
